Columns and labels:
Assay in all cases: In vitro kinase assay (Z′-LYTE)
Format in all cases: biochemical
FMS = target: T1, FMS (Homo sapiens, UniProt P07333); conditions: read-out: percent inhibition of the kinase compared to the control
T1 construct: purchased Invitrogen
Procedure, shortened: (§1)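 Single-point inhibition at 100 nM per compound (10 μM for ABL T315I), 1% DMSO final. Kinase buffer: 50 mM HEPES pH 7.5, 0.01% BRIJ-35, 10 mM MgCl2, 1 mM EGTA; ATP at previously determined apparent Km. Readout by FRET emission ratio (Z′-LYTE).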

ABL E255K = target: T2, ABL E255K (Homo sapiens, UniProt P00519, E255K); conditions: read-out: percent inhibition of the kinase compared to the control
T2 construct: purchased Invitrogen
Procedure, shortened: as §1

VEGFR3 = target: T3, VEGFR3 (Homo sapiens, UniProt P35916); conditions: read-out: percent inhibition of the kinase compared to the control
T3 construct: purchased Invitrogen
Procedure, shortened: as §1

EGFR (ErbB1) = target: T4, EGFR (ErbB1) (Homo sapiens, UniProt P00533); conditions: read-out: % of inhibition of the kinase compared to the control
T4 construct: purchased Invitrogen
Procedure, shortened: as §1

EGFR (ErbB1) T790M L858R = target: T5, EGFR (ErbB1) T790M L858R (Homo sapiens, UniProt P00533, L858R/T790M); conditions: read-out: % of inhibition of the kinase compared to the control
T5 construct: purchased Invitrogen
Procedure, shortened: as §1

CSK = target: T6, CSK (Homo sapiens, UniProt P41240); conditions: read-out: percent inhibition of the kinase compared to the control
T6 construct: purchased Invitrogen
Procedure, shortened: as §1

HCK = target: T7, HCK (Homo sapiens, UniProt P08631); conditions: read-out: percent inhibition of the kinase compared to the control
T7 construct: purchased Invitrogen
Procedure, shortened: as §1

BRAF V600E = target: T8, BRAF V600E (Homo sapiens, UniProt P15056, V600E); conditions: read-out: percent inhibition of the kinase compared to the control
T8 construct: purchased Invitrogen
Procedure, shortened: as §1

FLT3 = target: T9, FLT3 (Homo sapiens, UniProt P36888); conditions: read-out: percent inhibition of the kinase compared to the control
T9 construct: purchased Invitrogen
Procedure, shortened: as §1

BTK = target: T10, BTK (Homo sapiens, UniProt Q06187); conditions: read-out: percent inhibition of the kinase compared to the control
T10 construct: purchased Invitrogen
Procedure, shortened: as §1

FGFR1 = target: T11, FGFR1 (Homo sapiens, UniProt P11362); conditions: read-out: % of inhibition of the kinase compared to the control
T11 construct: purchased Invitrogen
Procedure, shortened: as §1

ABL G250E = target: T12, ABL G250E (Homo sapiens, UniProt P00519, G250E); conditions: read-out: percent inhibition of the kinase compared to the control
T12 construct: purchased Invitrogen
Procedure, shortened: as §1

HER2 = target: T13, HER2 (Homo sapiens, UniProt P04626); conditions: read-out: percent inhibition of the kinase compared to the control
T13 construct: purchased Invitrogen
Procedure, shortened: as §1

ABL = target: T14, ABL (Homo sapiens, UniProt P00519); conditions: read-out: % of inhibition of the kinase compared to the control
T14 construct: purchased Invitrogen

RET = target: T15, RET (Homo sapiens, UniProt P07949); conditions: read-out: percent inhibition of the kinase compared to the control
T15 construct: purchased Invitrogen
Procedure, shortened: as §1

LCK = target: T16, LCK (Homo sapiens, UniProt P06239); conditions: read-out: percent inhibition of the kinase compared to the control
T16 construct: purchased Invitrogen
Procedure, shortened: as §1

EPHA1 = target: T17, EPHA1 (Homo sapiens, UniProt P21709); conditions: read-out: percent inhibition of the kinase compared to the control
T17 construct: purchased Invitrogen
Procedure, shortened: as §1

KDR (VEGFR2) = target: T18, KDR (VEGFR2) (Homo sapiens, UniProt P35968); conditions: read-out: % of inhibition of the kinase compared to the control
T18 construct: purchased Invitrogen
Procedure, shortened: as §1

ABL T315I = target: T19, ABL T315I (Homo sapiens, UniProt P00519, T315I); conditions: read-out: % of inhibition of the kinase compared to the control
T19 construct: purchased Invitrogen
Procedure, shortened: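 Read-out is a ratiometric FRET signal (donor/acceptor emission, 400 nm excitation) from a doubly labelled peptide, whose cleavage by a development protease depends on its phosphorylation state. ATP used at apparent Km in HEPES pH 7.5 buffer with MgCl2; compounds at 100 nM, or 10 μM for ABL T315I.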

LYN A = target: T20, LYN A (Homo sapiens, UniProt P07948); conditions: read-out: percent inhibition of the kinase compared to the control
T20 construct: purchased Invitrogen
Procedure, shortened: as §1

FGR = target: T21, FGR (Homo sapiens, UniProt P09769); conditions: read-out: percent inhibition of the kinase compared to the control
T21 construct: purchased Invitrogen
Procedure, shortened: as §1

VEGFR1 = target: T22, VEGFR1 (Homo sapiens, UniProt P17948); conditions: read-out: % of inhibition of the kinase compared to the control
T22 construct: purchased Invitrogen
Procedure, shortened: as §1

MAPK14 = target: T23, MAPK14 (Homo sapiens, UniProt Q16539); conditions: read-out: percent inhibition of the kinase compared to the control
T23 construct: purchased Invitrogen
Procedure, shortened: as §1

EPHB4 = target: T24, EPHB4 (Homo sapiens, UniProt P54760); conditions: read-out: percent inhibition of the kinase compared to the control
T24 construct: purchased Invitrogen
Procedure, shortened: as §1

BLK = target: T25, BLK (Homo sapiens, UniProt P51451); conditions: read-out: percent inhibition of the kinase compared to the control
T25 construct: purchased Invitrogen
Procedure, shortened: as §1

PKC theta = target: T26, PKC theta (Homo sapiens, UniProt Q04759); conditions: read-out: percent inhibition of the kinase compared to the control
T26 construct: purchased Invitrogen
Procedure, shortened: as §1

FRK = target: T27, FRK (Homo sapiens, UniProt P42685); conditions: read-out: percent inhibition of the kinase compared to the control
T27 construct: purchased Invitrogen
Procedure, shortened: as §1

EPHB2 = target: T28, EPHB2 (Homo sapiens, UniProt P29323); conditions: read-out: percent inhibition of the kinase compared to the control
T28 construct: purchased Invitrogen
Procedure, shortened: as §1

EPHA2 = target: T29, EPHA2 (Homo sapiens, UniProt P29317); conditions: read-out: percent inhibition of the kinase compared to the control
T29 construct: purchased Invitrogen
Procedure, shortened: as §1

FYN = target: T30, FYN (Homo sapiens, UniProt P06241); conditions: read-out: percent inhibition of the kinase compared to the control
T30 construct: purchased Invitrogen
Procedure, shortened: as §1

SRC = target: T31, SRC (Homo sapiens, UniProt P12931); conditions: read-out: % of inhibition of the kinase compared to the control
T31 construct: purchased Invitrogen
Procedure, shortened: as §1

PDGFRA (PDGFR alpha) = target: T32, PDGFRA (PDGFR alpha) (Homo sapiens, UniProt P16234); conditions: read-out: % of inhibition of the kinase compared to the control
T32 construct: purchased Invitrogen
Procedure, shortened: as §1

ABL Y253F = target: T33, ABL Y253F (Homo sapiens, UniProt P00519, Y253F); conditions: read-out: percent inhibition of the kinase compared to the control
T33 construct: purchased Invitrogen
Procedure, shortened: as §1

T21 sequence (P09769 whole entry): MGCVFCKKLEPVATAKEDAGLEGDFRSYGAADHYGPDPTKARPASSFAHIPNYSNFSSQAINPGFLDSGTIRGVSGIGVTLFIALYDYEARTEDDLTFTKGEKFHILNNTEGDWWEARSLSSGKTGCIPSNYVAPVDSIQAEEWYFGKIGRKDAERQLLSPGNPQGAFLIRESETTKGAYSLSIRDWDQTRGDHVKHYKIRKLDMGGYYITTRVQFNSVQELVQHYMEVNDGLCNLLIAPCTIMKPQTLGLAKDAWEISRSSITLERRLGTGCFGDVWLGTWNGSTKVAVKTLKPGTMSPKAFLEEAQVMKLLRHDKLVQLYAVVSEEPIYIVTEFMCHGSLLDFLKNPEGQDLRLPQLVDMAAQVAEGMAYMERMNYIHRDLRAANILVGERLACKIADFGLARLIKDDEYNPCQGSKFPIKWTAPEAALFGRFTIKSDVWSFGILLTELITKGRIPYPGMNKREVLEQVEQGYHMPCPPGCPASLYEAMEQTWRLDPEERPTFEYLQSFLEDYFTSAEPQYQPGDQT
T5 sequence (P00533 25-1210 T790M/L858R): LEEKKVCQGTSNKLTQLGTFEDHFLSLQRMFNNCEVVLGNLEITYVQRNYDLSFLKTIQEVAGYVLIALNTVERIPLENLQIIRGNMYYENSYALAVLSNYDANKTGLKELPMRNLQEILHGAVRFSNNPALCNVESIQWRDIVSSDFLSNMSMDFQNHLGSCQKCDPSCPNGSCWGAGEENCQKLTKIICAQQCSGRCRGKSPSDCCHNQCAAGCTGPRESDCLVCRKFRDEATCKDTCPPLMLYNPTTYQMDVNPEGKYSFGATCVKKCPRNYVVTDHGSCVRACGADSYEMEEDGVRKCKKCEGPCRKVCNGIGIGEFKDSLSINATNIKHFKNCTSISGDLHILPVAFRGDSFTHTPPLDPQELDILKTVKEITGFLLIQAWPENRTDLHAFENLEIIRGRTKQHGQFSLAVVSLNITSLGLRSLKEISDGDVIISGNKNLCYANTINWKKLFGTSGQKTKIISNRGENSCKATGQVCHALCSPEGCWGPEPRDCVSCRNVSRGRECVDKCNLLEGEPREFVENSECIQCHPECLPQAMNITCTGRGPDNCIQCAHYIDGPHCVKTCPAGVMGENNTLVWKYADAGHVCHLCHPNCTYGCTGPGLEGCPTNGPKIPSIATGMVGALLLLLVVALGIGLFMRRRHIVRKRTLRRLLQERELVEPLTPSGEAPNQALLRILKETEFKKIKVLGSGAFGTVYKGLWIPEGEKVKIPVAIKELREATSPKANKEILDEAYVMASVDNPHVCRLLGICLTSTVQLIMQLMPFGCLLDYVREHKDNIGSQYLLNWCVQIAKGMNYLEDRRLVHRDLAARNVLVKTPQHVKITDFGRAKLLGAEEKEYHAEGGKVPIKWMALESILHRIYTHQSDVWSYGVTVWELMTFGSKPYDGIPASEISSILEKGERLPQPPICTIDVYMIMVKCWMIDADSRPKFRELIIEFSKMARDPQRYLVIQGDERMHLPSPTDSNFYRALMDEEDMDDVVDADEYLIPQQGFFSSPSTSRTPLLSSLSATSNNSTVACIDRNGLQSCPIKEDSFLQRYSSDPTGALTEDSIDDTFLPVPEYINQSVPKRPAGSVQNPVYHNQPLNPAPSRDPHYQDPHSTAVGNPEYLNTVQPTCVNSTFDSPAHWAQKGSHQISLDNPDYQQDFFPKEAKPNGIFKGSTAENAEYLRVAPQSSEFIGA
T10 sequence (Q06187 whole entry): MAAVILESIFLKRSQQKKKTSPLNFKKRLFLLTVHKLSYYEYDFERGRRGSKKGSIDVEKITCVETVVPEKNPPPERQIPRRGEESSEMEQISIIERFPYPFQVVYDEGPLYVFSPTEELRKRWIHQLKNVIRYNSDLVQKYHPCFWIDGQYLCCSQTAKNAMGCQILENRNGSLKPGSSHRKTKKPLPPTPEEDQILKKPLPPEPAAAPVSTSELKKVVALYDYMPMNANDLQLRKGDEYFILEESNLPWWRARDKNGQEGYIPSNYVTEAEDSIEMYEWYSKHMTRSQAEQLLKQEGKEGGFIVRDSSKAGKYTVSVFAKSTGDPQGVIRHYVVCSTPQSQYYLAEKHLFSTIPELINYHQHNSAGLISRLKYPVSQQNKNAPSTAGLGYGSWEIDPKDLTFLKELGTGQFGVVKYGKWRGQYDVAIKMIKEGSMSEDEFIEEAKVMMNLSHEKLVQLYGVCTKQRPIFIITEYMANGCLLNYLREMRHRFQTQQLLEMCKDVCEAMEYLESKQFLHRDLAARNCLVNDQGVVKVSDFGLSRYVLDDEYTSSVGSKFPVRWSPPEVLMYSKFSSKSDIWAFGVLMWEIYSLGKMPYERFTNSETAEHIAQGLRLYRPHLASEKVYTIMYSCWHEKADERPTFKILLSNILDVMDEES
T7 sequence (P08631 whole entry): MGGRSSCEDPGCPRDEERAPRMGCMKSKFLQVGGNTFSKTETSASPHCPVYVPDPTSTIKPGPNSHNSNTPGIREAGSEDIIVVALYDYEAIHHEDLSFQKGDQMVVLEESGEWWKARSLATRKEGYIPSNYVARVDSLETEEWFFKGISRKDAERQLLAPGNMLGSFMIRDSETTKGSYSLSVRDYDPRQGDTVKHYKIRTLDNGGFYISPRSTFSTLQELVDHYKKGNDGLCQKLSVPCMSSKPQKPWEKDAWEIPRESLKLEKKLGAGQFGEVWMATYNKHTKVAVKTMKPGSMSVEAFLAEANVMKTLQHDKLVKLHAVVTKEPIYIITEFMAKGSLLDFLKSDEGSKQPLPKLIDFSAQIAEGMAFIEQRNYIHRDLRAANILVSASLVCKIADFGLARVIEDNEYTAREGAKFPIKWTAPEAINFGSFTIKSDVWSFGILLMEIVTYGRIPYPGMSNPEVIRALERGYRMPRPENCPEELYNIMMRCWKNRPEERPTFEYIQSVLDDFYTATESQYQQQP
T23 sequence (Q16539 whole entry): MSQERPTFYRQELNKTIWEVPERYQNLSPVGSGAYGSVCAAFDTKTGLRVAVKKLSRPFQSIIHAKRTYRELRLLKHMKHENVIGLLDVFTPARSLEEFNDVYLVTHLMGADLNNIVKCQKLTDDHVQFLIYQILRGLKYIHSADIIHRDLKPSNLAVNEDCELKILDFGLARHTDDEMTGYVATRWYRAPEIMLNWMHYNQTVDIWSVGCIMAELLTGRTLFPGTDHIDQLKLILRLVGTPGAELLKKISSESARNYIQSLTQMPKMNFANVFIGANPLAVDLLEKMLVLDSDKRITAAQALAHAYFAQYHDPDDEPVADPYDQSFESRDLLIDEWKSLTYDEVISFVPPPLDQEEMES
T6 sequence (P41240 whole entry): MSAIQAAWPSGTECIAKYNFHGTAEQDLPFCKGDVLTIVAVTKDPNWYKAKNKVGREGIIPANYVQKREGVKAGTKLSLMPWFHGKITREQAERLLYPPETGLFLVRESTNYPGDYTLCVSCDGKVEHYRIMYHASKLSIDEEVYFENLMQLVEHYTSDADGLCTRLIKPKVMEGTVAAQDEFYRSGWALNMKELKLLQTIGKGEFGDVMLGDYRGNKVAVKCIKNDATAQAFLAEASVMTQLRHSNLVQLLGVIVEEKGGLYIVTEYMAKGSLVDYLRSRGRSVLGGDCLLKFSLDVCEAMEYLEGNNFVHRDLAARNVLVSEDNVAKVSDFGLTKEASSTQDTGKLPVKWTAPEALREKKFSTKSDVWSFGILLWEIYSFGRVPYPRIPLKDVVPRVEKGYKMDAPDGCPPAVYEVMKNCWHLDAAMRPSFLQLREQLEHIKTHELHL
T28 sequence (P29323 19-1055): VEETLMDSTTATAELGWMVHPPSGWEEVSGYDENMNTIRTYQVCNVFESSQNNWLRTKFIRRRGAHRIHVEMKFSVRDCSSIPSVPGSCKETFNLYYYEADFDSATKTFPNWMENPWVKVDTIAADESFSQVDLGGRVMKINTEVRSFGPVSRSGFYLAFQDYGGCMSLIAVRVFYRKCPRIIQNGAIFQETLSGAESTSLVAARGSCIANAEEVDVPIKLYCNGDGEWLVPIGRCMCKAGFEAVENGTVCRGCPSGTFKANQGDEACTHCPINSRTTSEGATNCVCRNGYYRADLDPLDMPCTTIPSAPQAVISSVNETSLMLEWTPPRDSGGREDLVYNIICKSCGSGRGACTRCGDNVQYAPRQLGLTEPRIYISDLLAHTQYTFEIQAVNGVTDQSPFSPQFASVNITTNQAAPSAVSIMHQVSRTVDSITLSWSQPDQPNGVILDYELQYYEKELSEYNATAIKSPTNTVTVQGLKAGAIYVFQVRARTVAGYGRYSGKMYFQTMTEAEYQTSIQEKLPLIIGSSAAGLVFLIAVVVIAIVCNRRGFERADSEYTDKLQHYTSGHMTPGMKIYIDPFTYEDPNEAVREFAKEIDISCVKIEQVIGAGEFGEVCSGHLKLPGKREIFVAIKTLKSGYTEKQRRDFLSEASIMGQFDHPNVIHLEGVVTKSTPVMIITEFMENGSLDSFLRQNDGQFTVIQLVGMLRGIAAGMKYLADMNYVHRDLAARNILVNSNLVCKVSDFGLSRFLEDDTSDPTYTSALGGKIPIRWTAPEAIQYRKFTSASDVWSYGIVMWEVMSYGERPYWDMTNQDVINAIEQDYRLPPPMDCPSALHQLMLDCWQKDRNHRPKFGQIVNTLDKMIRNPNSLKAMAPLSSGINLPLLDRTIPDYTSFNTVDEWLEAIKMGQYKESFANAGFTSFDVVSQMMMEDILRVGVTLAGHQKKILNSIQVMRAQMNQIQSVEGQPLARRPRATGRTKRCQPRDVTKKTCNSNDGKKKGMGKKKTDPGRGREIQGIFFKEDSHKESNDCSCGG

## COC(=O)c1cc2cc(NCc3cc(NC(=O)c4ccc(CN5CCN(C)CC5)c(C(F)(F)F)c4)ccc3C)cnc2[nH]1 [OR0512]
FMS
  inhibition at 0.1 µM: > 50%
ABL E255K
  inhibition at 0.1 µM: > 50%
VEGFR3
  inhibition at 0.1 µM: > 50%
EGFR (ErbB1)
  inhibition at 0.1 µM: ≥ 50%
EGFR (ErbB1) T790M L858R
  inhibition at 0.1 µM: < 50%
CSK
  inhibition at 0.1 µM: > 50%
HCK
  inhibition at 0.1 µM: > 50%
BRAF V600E
  inhibition at 0.1 µM: > 50%
FLT3
  inhibition at 0.1 µM: > 50%
BTK
  inhibition at 0.1 µM: > 50%
FGFR1
  inhibition at 0.1 µM: ≥ 50%
ABL G250E
  inhibition at 0.1 µM: > 50%
HER2
  inhibition at 0.1 µM: > 50%
ABL
  inhibition at 10 µM: ≥ 50%
RET
  inhibition at 0.1 µM: > 50%
LCK
  inhibition at 0.1 µM: > 50%
EPHA1
  inhibition at 0.1 µM: > 50%
KDR (VEGFR2)
  inhibition at 0.1 µM: ≥ 50%
ABL T315I
  inhibition at 10 µM: ≥ 50%
LYN A
  inhibition at 0.1 µM: > 50%
FGR
  inhibition at 0.1 µM: > 50%
VEGFR1
  inhibition at 0.1 µM: < 50%
MAPK14
  inhibition at 0.1 µM: > 50%
EPHB4
  inhibition at 0.1 µM: > 50%
BLK
  inhibition at 0.1 µM: > 50%
PKC theta
  inhibition at 0.1 µM: > 50%
FRK
  inhibition at 0.1 µM: > 50%
EPHB2
  inhibition at 0.1 µM: > 50%
EPHA2
  inhibition at 0.1 µM: > 50%
FYN
  inhibition at 0.1 µM: > 50%
SRC
  inhibition at 0.1 µM: ≥ 50%
PDGFRA (PDGFR alpha)
  inhibition at 0.1 µM: ≥ 50%
ABL Y253F
  inhibition at 0.1 µM: > 50%
